# Data published in ChEMBL document CHEMBL3352063, “Transition state mimetics of the Plasmodium export element are potent inhibitors of Plasmepsin V from P. falciparum and P. vivax” (J Med Chem, 2014).
# pEC50, pIC50: −log10 of the molar value. “And” between values parts separate entries of the source, which are not always exact repeats. Equal entries are not always repeated. Square brackets hold non-standard residues; d marks the D form. Peptide text beside a SMILES is read from it. * marks the point of attachment. Sta = CC(C)C[C@H](N)[C@@H](O)CC(=O)O; NHPhenethyl = c1ccc(CCN*)cc1; Cbz = O=C(OCc1ccccc1)*; NHBn = c1ccc(CN*)cc1; Bz = O=C(c1ccccc1)*; GABA = NCCCC(=O)O
# Experiments:
# Plasmepsin V [1] = biological target: Plasmepsin V (Plasmodium falciparum (isolate 3D7), UniProt Q8I6Z5); assay: Inhibition of Plasmodium falciparum plasmepsin V assessed as cleavage of wtKAHRP fluorogenic substrate
# Cathepsin D = Cathepsin D (Homo sapiens, UniProt P07339); assay: Inhibition of human cathepsin D assessed as cleavage of wtKAHRP fluorogenic substrate
# Beta-secretase 1 = Beta-secretase 1 (Homo sapiens, UniProt P56817); assay: Inhibition of human BACE1 assessed as cleavage of TRF substrate
# [2] = biological target: Plasmepsin V (Plasmodium falciparum (isolate 3D7)) (UniProt Q8I6Z5); assay: Inhibition of Plasmodium falciparum plasmepsin V assessed as cleavage of wtKAHRP fluorogenic substrate at 1 uM
# Plasmodium falciparum = assay: Antiplasmodial activity against Plasmodium falciparum 3D7 infected in human O positive erythrocyte after 72 hrs; assay type: functional, organism-based; details: 3D7, 72 h
# [3] = biological target: Plasmepsin V (Plasmodium falciparum (isolate 3D7)) (UniProt Q8I6Z5); assay: Inhibition of plasmepsin V in Plasmodium falciparum trophozoite expressing PfEMP3-GFP infected erythrocyte assessed as PEXEL processing at 20 uM by immunoblotting analysis
# HepG2 = assay: Cytotoxicity against human HepG2 cells assessed as cell death after 48 hrs by Cell Titer-Glo assay; assay type: cell-based; details: HepG2, 48 h
# Plasmepsin V [4] = biological target: Plasmepsin V (Plasmodium vivax, UniProt A0A0H4FQ60); assay: Inhibition of Plasmodium vivax plasmepsin V by fluorogenic PEXEL cleavage assay
# [5] = biological target: Plasmepsin V (Plasmodium vivax) (UniProt A0A0H4FQ60); assay: Inhibition of Plasmodium vivax plasmepsin V at 1 uM by fluorogenic PEXEL cleavage assay
# Chain of Plasmepsin V (Plasmodium vivax) (A0A0H4FQ60 as listed by the source): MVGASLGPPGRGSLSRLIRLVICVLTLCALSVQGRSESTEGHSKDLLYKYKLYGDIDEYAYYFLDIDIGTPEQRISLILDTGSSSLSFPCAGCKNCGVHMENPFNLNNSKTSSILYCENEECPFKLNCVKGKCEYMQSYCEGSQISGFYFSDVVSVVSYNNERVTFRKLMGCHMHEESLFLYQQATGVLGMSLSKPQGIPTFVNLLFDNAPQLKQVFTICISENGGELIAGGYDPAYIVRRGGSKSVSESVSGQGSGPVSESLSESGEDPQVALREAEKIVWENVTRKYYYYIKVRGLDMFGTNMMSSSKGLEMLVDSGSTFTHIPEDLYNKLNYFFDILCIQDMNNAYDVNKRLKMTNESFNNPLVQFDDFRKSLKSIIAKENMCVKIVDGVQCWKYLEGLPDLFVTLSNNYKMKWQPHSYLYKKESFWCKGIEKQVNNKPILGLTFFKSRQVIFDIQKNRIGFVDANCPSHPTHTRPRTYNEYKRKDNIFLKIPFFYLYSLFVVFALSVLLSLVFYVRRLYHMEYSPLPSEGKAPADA
# Chain of Plasmepsin V (Plasmodium falciparum (isolate 3D7)) (Q8I6Z5 whole entry, looked up): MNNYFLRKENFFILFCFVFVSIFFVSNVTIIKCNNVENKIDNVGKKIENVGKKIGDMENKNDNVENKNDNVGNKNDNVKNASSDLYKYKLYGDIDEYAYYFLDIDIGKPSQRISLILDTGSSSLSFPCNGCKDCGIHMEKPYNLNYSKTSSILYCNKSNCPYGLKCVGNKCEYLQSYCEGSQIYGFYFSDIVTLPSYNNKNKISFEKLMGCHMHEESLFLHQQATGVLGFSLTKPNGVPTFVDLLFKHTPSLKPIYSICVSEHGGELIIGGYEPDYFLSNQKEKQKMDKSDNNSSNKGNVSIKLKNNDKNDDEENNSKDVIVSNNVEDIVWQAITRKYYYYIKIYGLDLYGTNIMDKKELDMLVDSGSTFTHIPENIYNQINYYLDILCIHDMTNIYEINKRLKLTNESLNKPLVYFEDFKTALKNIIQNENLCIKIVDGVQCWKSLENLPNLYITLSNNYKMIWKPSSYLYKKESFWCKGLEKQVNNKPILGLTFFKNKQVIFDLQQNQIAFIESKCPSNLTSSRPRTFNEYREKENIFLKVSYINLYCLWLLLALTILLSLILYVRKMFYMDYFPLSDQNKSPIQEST
# Chain of Plasmepsin V (Plasmodium falciparum (isolate 3D7), UniProt Q8I6Z5) (Q8I6Z5 whole entry): as the sequence (Q8I6Z5 whole entry, looked up) above
# Chain of Beta-secretase 1 (P56817 whole entry): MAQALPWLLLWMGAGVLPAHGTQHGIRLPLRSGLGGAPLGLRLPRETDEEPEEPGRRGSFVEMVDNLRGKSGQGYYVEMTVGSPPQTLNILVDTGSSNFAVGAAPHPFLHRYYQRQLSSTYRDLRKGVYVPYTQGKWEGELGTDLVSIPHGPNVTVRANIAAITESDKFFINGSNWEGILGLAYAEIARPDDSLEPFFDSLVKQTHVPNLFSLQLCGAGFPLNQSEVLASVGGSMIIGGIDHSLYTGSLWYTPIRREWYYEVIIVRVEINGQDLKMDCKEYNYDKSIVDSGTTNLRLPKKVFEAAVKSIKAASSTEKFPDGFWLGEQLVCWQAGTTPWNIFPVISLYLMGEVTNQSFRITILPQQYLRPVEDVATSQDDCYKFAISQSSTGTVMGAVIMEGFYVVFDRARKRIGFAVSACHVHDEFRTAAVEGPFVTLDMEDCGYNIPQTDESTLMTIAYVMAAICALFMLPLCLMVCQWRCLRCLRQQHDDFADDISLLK
# Chain of Cathepsin D (P07339 65-162 limits assumed): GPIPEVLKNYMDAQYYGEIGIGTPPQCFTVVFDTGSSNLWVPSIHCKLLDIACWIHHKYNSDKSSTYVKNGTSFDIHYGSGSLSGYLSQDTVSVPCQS
# Chain of Cathepsin D (P07339 169-412 limits assumed): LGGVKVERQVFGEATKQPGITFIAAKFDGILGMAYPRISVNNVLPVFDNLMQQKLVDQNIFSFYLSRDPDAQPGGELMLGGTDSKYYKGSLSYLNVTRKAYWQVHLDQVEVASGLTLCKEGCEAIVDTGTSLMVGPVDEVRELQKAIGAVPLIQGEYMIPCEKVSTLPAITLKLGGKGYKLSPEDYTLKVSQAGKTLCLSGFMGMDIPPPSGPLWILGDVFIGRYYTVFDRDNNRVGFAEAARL
# Chain of Plasmepsin V (Plasmodium vivax, UniProt A0A0H4FQ60) (A0A0H4FQ60 whole entry): as the sequence (A0A0H4FQ60 as listed by the source) above
smiles,measurement,setting,value
CC(C)C[C@H](NC(=O)[C@H](C)NC(=O)[C@H](CCCNC(=N)N)NC(=O)OCc1ccccc1)[C@@H](O)CC(=O)NCCc1ccccc1 (Cbz-Arg-Ala-[Sta]-NHPhenethyl),pIC50,Plasmepsin V [1],6.21
same,pIC50,Cathepsin D,4.54
same,pIC50,Beta-secretase 1,< 4.00
same,inhibition,[2],79%
CC(C)C[C@H](NC(=O)[C@H](C)NC(=O)[C@H](CCCNC(=N)N)NC(=O)COCc1ccccc1)[C@@H](O)CC(=O)NCCc1ccccc1,pIC50,Plasmepsin V [1],6.26
same,pIC50,Cathepsin D,< 4.00
same,pIC50,Beta-secretase 1,< 4.00
same,inhibition,[2],81%
same,pEC50,Plasmodium falciparum,4.64
same,Activity,[3],0.16 OD/mm2
same,pEC50,HepG2,< 4.30
CC(C)C[C@H](NC(=O)[C@H](C)NC(=O)[C@H](CCCNC(=N)N)NC(=O)OCc1ccccc1)[C@@H](O)CC(=O)NC(C)c1ccccc1 (mixture of isomers),pIC50,Plasmepsin V [1],6.24
same,pIC50,Cathepsin D,< 4.00
same,pIC50,Beta-secretase 1,< 4.00
same,inhibition,[2],56%
CC(C)C[C@H](NC(=O)[C@@H](NC(=O)[C@H](CCCNC(=N)N)NS(=O)(=O)Cc1ccccc1)C(C)C)[C@@H](O)CC(=O)NCCc1ccccc1,pIC50,Plasmepsin V [1],7.72
same,pIC50,Cathepsin D,4.49
same,pIC50,Beta-secretase 1,< 4.00
same,pIC50,Plasmepsin V [4],7.62
same,pEC50,Plasmodium falciparum,5.60
same,Activity,[3],2.76 OD/mm2
same,pEC50,HepG2,< 4.30
CCN(CC)CCCC(C)Nc1ccnc2cc(Cl)ccc12 (stereo not given) [CHLOROQUINE],pEC50,Plasmodium falciparum,8.52
CC(=O)N[C@@H](CCCNC(=N)N)C(=O)N[C@@H](C)C(=O)N[C@@H](CC(C)C)[C@@H](O)CC(=O)NC1CCCCC1,pIC50,Plasmepsin V [1],6.01
same,pIC50,Cathepsin D,< 4.00
same,pIC50,Beta-secretase 1,< 4.00
CC(C)C[C@H](NC(=O)[C@H](C)NC(=O)[C@H](CCCNC(=N)N)NS(=O)(=O)c1ccccc1)[C@@H](O)CC(=O)NCCc1ccccc1,pIC50,Plasmepsin V [1],6.42
same,pIC50,Cathepsin D,< 4.00
same,pIC50,Beta-secretase 1,< 4.00
same,inhibition,[2],78%
same,pEC50,Plasmodium falciparum,4.79
same,Activity,[3],0.31 OD/mm2
same,pEC50,HepG2,< 4.30
CC(=O)N[C@@H](CCCNC(=N)N)C(=O)N[C@@H](C)C(=O)N[C@@H](CC(C)C)[C@@H](O)CC(=O)N[C@@H](C)C(N)=O (Ac-RA[Sta]A-NH2),pIC50,Plasmepsin V [1],6.21
same,pIC50,Cathepsin D,< 4.00
same,pIC50,Beta-secretase 1,< 4.00
CC(C)C[C@H](NC(=O)[C@H](C)NC(=O)[C@H](CCCNC(=N)N)NC(=O)OCc1ccccc1)[C@@H](O)CC(=O)NC1Cc2ccccc2C1,pIC50,Plasmepsin V [1],6.11
same,pIC50,Cathepsin D,< 4.00
same,pIC50,Beta-secretase 1,< 4.00
same,inhibition,[2],66%
CC(C)C[C@H](NC(=O)[C@H](C)NC(=O)[C@H](CCCNC(=N)N)NC(=O)c1ccccc1)[C@@H](O)CC(=O)NCCc1ccccc1 (Bz-Arg-Ala-[Sta]-NHPhenethyl),pIC50,Plasmepsin V [1],6.11
same,pIC50,Cathepsin D,< 4.00
same,pIC50,Beta-secretase 1,< 4.00
same,inhibition,[2],62%
CC(C)C[C@H](NC(=O)[C@H](Cc1ccccc1)NC(=O)[C@H](CCCNC(=N)N)NC(=O)OCc1ccccc1)[C@@H](O)CC(=O)NC1CCCCC1,pIC50,Plasmepsin V [1],6.64
same,pIC50,Cathepsin D,5.32
same,pIC50,Beta-secretase 1,< 4.00
CC(C)C[C@H](NC(=O)[C@H](C)NC(=O)[C@H](CCCNC(=N)N)NC(=O)OCc1ccccc1)[C@@H](O)CC(=O)NCCc1ccc(Cl)cc1,pIC50,Plasmepsin V [1],6.46
same,pIC50,Cathepsin D,< 4.00
same,pIC50,Beta-secretase 1,< 4.00
CC(C)C[C@H](NC(=O)[C@H](C)NC(=O)[C@H](CCCNC(=N)N)NC(=O)OCc1ccccc1)[C@@H](O)CC(=O)N(C)CCc1ccc(Cl)cc1,pIC50,Plasmepsin V [1],5.70
same,pIC50,Cathepsin D,< 4.00
same,pIC50,Beta-secretase 1,< 4.00
same,inhibition,[2],20%
CC[C@H](C)[C@H](NC(=O)[C@H](CCCNC(=N)N)NC(=O)OCc1ccccc1)C(=O)N[C@@H](CC(C)C)[C@@H](O)CC(=O)NC1CCCCC1,pIC50,Plasmepsin V [1],7.59
same,pIC50,Cathepsin D,6.35
same,pIC50,Beta-secretase 1,< 4.00
same,pEC50,Plasmodium falciparum,5.17
same,Activity,[3],0.53 OD/mm2
CC(C)C[C@H](NC(=O)[C@H](CCCNC(=N)N)NC(=O)OCc1ccccc1)C(=O)N[C@@H](CC(C)C)[C@@H](O)CC(=O)NC1CCCCC1,pIC50,Plasmepsin V [1],7.11
same,pIC50,Cathepsin D,5.29
same,pIC50,Beta-secretase 1,< 4.00
same,pEC50,Plasmodium falciparum,5.05
same,Activity,[3],0.26 OD/mm2
same,pEC50,HepG2,< 4.30
CC(=O)N[C@@H](CCCNC(=N)N)C(=O)N[C@@H](C)C(=O)N[C@@H](CC(C)C)[C@@H](O)CC(=O)NCCCC(N)=O (Ac-RA[Sta][GABA]-NH2),pIC50,Plasmepsin V [1],6.06
same,pIC50,Cathepsin D,< 4.00
same,pIC50,Beta-secretase 1,< 4.00
CC(C)C[C@H](NC(=O)[C@H](C)NC(=O)[C@H](CCCCN)NC(=O)OCc1ccccc1)[C@@H](O)CC(=O)NC1CCCCC1,pIC50,Plasmepsin V [1],< 4.70
same,pIC50,Cathepsin D,< 4.00
same,pIC50,Beta-secretase 1,< 4.00
CC(C)C[C@H](NC(=O)[C@@H](NC(=O)[C@H](CCCNC(=N)N)NC(=O)OCc1ccccc1)C(C)C)[C@@H](O)CC(=O)NC1CCCCC1,pIC50,Plasmepsin V [1],7.54
same,pIC50,Cathepsin D,6.15
same,pIC50,Beta-secretase 1,< 4.00
same,pEC50,Plasmodium falciparum,5.01
same,Activity,[3],0.24 OD/mm2
same,pEC50,HepG2,< 4.30
CC(C)C[C@H](NC(=O)[C@H](C)NC(=O)[C@H](CCCNC(=N)N)NC(=O)OCc1ccccc1)[C@@H](O)CC(=O)NCc1ccccc1 (Cbz-Arg-Ala-[Sta]-NHBn),pIC50,Plasmepsin V [1],6.28
same,pIC50,Cathepsin D,< 4.00
same,pIC50,Beta-secretase 1,< 4.00
same,inhibition,[2],60%
C[C@H](NC(=O)[C@H](CCCNC(=N)N)NC(=O)OCc1ccccc1)C(=O)N[C@@H](CC1CCCCC1)[C@@H](O)CC(=O)NC1CCCCC1,pIC50,Plasmepsin V [1],< 4.70
same,inhibition,[5],35%
CC(C)C[C@H](NC(=O)[C@H](C)NC(=O)[C@H](CCCN)NC(=O)OCc1ccccc1)[C@@H](O)CC(=O)NC1CCCCC1,pIC50,Plasmepsin V [1],< 4.70
same,pIC50,Cathepsin D,< 4.00
same,pIC50,Beta-secretase 1,< 4.00
same,pEC50,Plasmodium falciparum,< 4.30
same,Activity,[3],0.18 OD/mm2
same,pEC50,HepG2,< 4.30
CC(C)C[C@H](NC(=O)[C@H](C)NC(=O)[C@H](CCCNC(=N)N)NC(=O)OCc1ccccc1)[C@@H](O)CC(=O)NC1CCCCC1,pIC50,Plasmepsin V [1],6.21
same,pIC50,Cathepsin D,< 4.00
same,pIC50,Beta-secretase 1,< 4.00
same,inhibition,[2],54% and 51%
same,pEC50,Plasmodium falciparum,4.46
same,Activity,[3],0.2 OD/mm2
same,pEC50,HepG2,< 4.30
CC(C)C[C@H](NC(=O)[C@H](C)NC(=O)[C@H](CCCNC(=N)N)NS(=O)(=O)Cc1ccccc1)[C@@H](O)CC(=O)NCCc1ccccc1,pIC50,Plasmepsin V [1],6.20
same,pIC50,Cathepsin D,< 4.00
same,pIC50,Beta-secretase 1,< 4.00
same,inhibition,[2],89%
